Entries after “also recorded” stand apart in the source; their conditions may differ.
Experiments:
[1] = system: wart-shaped excrescence; assay: topical treatment of a wart-shaped excrescence (Example 9); format: in vivo, human
Experimental: A person presented a wart-shaped excrescence of increasing size (diameter: about 5 mm; height: about 3 mm), formed at the site of a stab wound on their right middle finger after an initial inflammatory reaction. The excrescence grew over a period of about 1.5 years. There was heavy vascularization at the site, as well as superficial furrowing. The position of the wart (side facing the ring finger), made it quite susceptible to injury.
The patient was treated by topically administering a composition containing 40 mg/ml hexadecylphosphocholine, 317 mg/ml of 3-propoxypropyleneglycol, 158 mg/ml of hexyloxypropyleneglycol, and 158 mg/ml of nonyloxypropyleneglycol, in solution, and then a solution containing 60 mg/ml of the hexadecy/phosphocholine, and the other components above, in the same amounts. The solutions were administered topically, 2-3 times per day.
The excrescence rapidly developed a horny surface, and regressed. Cornified residues were removable without bleeding. The treatment was terminated […] the surrounding skin level was reached. This took about 6 weeks. When the patient was examined about 8 weeks later, the condition was stable. […] It is believed that this was the result of regeneration of the epidermis in the excrescence region.

[2] = system: chemically-induced mammary carcinomas; assay: chemically-induced mammary carcinomas in rats, oral potable solution; format: in vivo, rat; conditions: daily doses of 20, 40 and 60 mg/kg body weight
Description: For oral administration, the compounds of formula I are advantageously used in the form of a potable solution. Suitable potable carriers for this purpose include milks, cocoa, fruit juices and drinking water. The preparation of such potable solutions can involve, for example, diluting a concentrated alcoholic solution of a compound of the formula I or I′ with water or with another one of the previously mentioned carriers. […] The tumor model used for these experiments was a so-called hard model. This means that the findings obtained with this model can also be applied to humans.

CCCCCCCCCCCCCCCCOP(=O)([O-])OCC[N+](C)(C)C [hexadecylphosphocholine]
condition at follow-up ([1]; examined about 8 weeks after end of treatment): stable | effect on the excrescence ([1]; person, topical 2-3 times per day, 40 then 60 mg/ml in propoxy-/hexyloxy-/nonyloxypropyleneglycol solution): regressed | damage to surrounding healthy skin regions ([1]; topical): no apparent damage | time of treatment until termination (before surrounding skin level was reached) ([1]; topical 2-3 times per day): about 6 weeks | skin reactions ([1]; topical, reddening disappeared after about 2 weeks): slight reddening of the skin; also recorded: slight peeling of healthy skin

CCCCCCCC/C=C\CCCCCCCCOP(=O)([O-])OCC[N+](C)(C)C [oleylphosphocholine]
remission of chemically-induced mammary carcinomas [2]: complete remission
